target: T1, Neuromedin-K receptor (Homo sapiens, UniProt P29371); assay: Concentration required for binding affinity to Tachykinin receptor 3 in chinese hamster ovary cells; assay type: cell-based, CHO
T1 sequence (P29371 whole entry): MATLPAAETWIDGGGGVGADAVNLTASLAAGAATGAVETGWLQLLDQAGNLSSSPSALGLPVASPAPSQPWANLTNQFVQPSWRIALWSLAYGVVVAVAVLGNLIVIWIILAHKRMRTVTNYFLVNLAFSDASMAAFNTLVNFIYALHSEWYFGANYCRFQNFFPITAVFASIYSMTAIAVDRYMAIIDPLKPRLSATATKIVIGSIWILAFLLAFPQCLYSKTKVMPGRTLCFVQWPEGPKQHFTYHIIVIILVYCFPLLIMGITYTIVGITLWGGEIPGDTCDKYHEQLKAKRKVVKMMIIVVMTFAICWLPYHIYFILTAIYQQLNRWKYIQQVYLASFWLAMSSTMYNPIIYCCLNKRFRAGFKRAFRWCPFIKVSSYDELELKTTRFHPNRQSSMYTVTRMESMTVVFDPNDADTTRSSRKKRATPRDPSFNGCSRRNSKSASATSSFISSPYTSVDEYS

| SMILES | IC50 [µM] |
| --- | --- |
| CC(C)OC(=O)N[C@@H](Cc1c[nH]c2ccccc12)C(=O)NCCc1c[nH]c2ccccc12 | 9.42 |

target: Neuromedin-B receptor (Homo sapiens, UniProt P28336); assay: Binding affinity for human neuromedin B(hNMB) receptor expressed in CHO cells; assay type: cell-based
Sequence (P28336 whole entry): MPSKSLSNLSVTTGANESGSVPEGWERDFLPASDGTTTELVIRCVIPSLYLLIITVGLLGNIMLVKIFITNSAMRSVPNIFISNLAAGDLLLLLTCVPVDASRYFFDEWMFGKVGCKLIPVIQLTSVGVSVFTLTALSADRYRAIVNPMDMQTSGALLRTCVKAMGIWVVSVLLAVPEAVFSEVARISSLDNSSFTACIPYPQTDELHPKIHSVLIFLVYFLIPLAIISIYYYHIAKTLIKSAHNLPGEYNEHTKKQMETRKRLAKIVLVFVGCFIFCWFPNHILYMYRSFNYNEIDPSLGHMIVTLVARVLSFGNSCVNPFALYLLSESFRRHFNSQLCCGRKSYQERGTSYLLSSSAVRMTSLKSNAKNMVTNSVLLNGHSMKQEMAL

| SMILES | Ki [µM] |
| --- | --- |
| O=C(NC(Cc1c[nH]c2ccccc12)C(=O)NCCc1ccccc1)OCc1cnc[nH]1 (stereo unspecified) | 2.6 |
| O=C(N[C@@H](Cc1c[nH]c2ccccc12)C(=O)NCCc1ccccc1)OCc1c[nH]cn1 | 2.7 |
| CC(C)CNC(=O)C(Cc1c[nH]c2ccccc12)NC(=O)OCc1cn(C(c2ccccc2)(c2ccccc2)c2ccccc2)cn1 (stereo unspecified) | 0.037 |
| O=C(N[C@@H](Cc1c[nH]c2ccccc12)C(=O)NCCc1ccccc1)OCc1ccccc1 | 2.6 |
| CC(C)CCNC(=O)[C@H](Cc1c[nH]c2ccccc12)NC(=O)OCc1cnc[nH]1 | 3.9 |
| CC(C)CNC(=O)[C@H](Cc1c[nH]c2ccccc12)NC(=O)OCC(C)C | > 10 |
| COC(=O)N[C@@H](Cc1c[nH]c2ccccc12)C(=O)NCCO | > 10 |
| O=C(O)CCNC(=O)[C@H](Cc1c[nH]c2ccccc12)NC(=O)OCCc1c[nH]c2ccccc12 | > 10 |
| O=C(N[C@@H](Cc1c[nH]c2ccccc12)C(=O)NCCc1c[nH]c2ccccc12)OCc1c[nH]cn1 | 3.7 |
| CC(C)COC(=O)N[C@@H](Cc1c[nH]c2ccccc12)C(=O)NCCO | > 10 |
| CC(C)CCNC(=O)[C@H](Cc1c[nH]c2ccccc12)NC(=O)OCC(C)C | > 10 |
| CC(C)CCNC(=O)C(Cc1c[nH]c2ccccc12)NC(=O)OCc1c[nH]cn1 (stereo unspecified) | 3.9 |
| COC(=O)N[C@@H](Cc1c[nH]c2ccccc12)C(=O)NCCc1c[nH]c2ccccc12 | > 10 |
| NCCCCCNC(=O)[C@H](Cc1c[nH]c2ccccc12)NC(=O)OCc1ccccc1 | > 10 |
| NCCCCOC(=O)N[C@@H](Cc1c[nH]c2ccccc12)C(=O)NCCO | > 10 |
| COC(=O)N[C@@H](Cc1c[nH]c2ccccc12)C(=O)NCCc1ccccc1 | > 10 |
| NCCCCOC(=O)N[C@@H](Cc1c[nH]c2ccccc12)C(=O)NCCc1c[nH]c2ccccc12 | 8.9 |
| CC(C)COC(=O)N[C@@H](Cc1c[nH]c2ccccc12)C(=O)NCCc1cnc[nH]1 | > 10 |
| CC(C)OC(=O)N[C@@H](Cc1c[nH]c2ccccc12)C(=O)NCCO | > 10 |
| O=C(N[C@@H](Cc1c[nH]c2ccccc12)C(=O)NCCc1c[nH]c2ccccc12)OCCc1c[nH]c2ccccc12 | 0.98 |
| NCCCCCNC(=O)[C@H](Cc1c[nH]c2ccccc12)NC(=O)OCC(=O)O | > 10 |

| SMILES | Ki [µM] |
| --- | --- |
| O=C(O)COC(=O)N[C@@H](Cc1c[nH]c2ccccc12)C(=O)NCCc1c[nH]c2ccccc12 | > 10 |
| CC(C)CNC(=O)[C@H](Cc1c[nH]c2ccccc12)NC(=O)OCCCCN | > 10 |
| CC(C)OC(=O)N[C@@H](Cc1c[nH]c2ccccc12)C(=O)NCCc1c[nH]c2ccccc12 | > 10 |
| O=C(O)COC(=O)N[C@@H](Cc1c[nH]c2ccccc12)C(=O)NCCO | > 10 |
| COC(=O)N[C@@H](Cc1c[nH]c2ccccc12)C(=O)NCCC(=O)O | > 10 |
| NCCCCOC(=O)N[C@@H](Cc1c[nH]c2ccccc12)C(=O)NCCc1ccccc1 | > 10 |
| CC(C)CCNC(=O)[C@H](Cc1c[nH]c2ccccc12)NC(=O)OC(C)C | > 10 |
| O=C(N[C@@H](Cc1c[nH]c2ccccc12)C(=O)NCCc1c[nH]cn1)OCc1ccccc1 | > 10 |
| NCCCCCNC(=O)[C@H](Cc1c[nH]c2ccccc12)NC(=O)OCCCCN | > 10 |
| CC(C)CCNC(=O)[C@H](Cc1c[nH]c2ccccc12)NC(=O)OCC(=O)O | > 10 |
| CC(C)OC(=O)N[C@@H](Cc1c[nH]c2ccccc12)C(=O)NCCCCCN | > 10 |
| CC(C)CCNC(=O)[C@H](Cc1c[nH]c2ccccc12)NC(=O)OCc1ccccc1 | 6.1 |
| CC(C)CCNC(=O)[C@H](Cc1c[nH]c2ccccc12)NC(=O)OCCCCN | > 10 |
| CC(C)CNC(=O)[C@H](Cc1c[nH]c2ccccc12)NC(=O)OC(C)C | > 10 |
| O=C(N[C@@H](Cc1c[nH]c2ccccc12)C(=O)NCCO)OCCc1c[nH]c2ccccc12 | > 10 |
| CC(C)CNC(=O)[C@H](Cc1c[nH]c2ccccc12)NC(=O)OCCc1c[nH]c2ccccc12 | 3.5 |
| CC(C)COC(=O)N[C@@H](Cc1c[nH]c2ccccc12)C(=O)NCCc1c[nH]c2ccccc12 | 4.7 |
| CC(C)COC(=O)N[C@@H](Cc1c[nH]c2ccccc12)C(=O)NCCCCCN | > 10 |
| O=C(N[C@@H](Cc1c[nH]c2ccccc12)C(=O)NCCc1ccccc1)OCCc1c[nH]c2ccccc12 | 1.1 |
| COC(=O)N[C@@H](Cc1c[nH]c2ccccc12)C(=O)NCCC(C)C | > 10 |
| NCCCCOC(=O)N[C@@H](Cc1c[nH]c2ccccc12)C(=O)NCCc1cnc[nH]1 | > 10 |

| SMILES | Ki [µM] |
| --- | --- |
| CC(C)OC(=O)N[C@@H](Cc1c[nH]c2ccccc12)C(=O)NCCc1c[nH]cn1 | > 10 |
| CC(C)CNC(=O)[C@H](Cc1c[nH]c2ccccc12)NC(=O)OCc1ccccc1 | > 10 |
| COC(=O)N[C@@H](Cc1c[nH]c2ccccc12)C(=O)NCC(C)C | > 10 |
| COC(=O)N[C@@H](Cc1c[nH]c2ccccc12)C(=O)NCCCCCN | > 10 |
| O=C(N[C@@H](Cc1c[nH]c2ccccc12)C(=O)NCCc1c[nH]c2ccccc12)OCc1ccccc1 | 2.8 |
| O=C(O)COC(=O)N[C@@H](Cc1c[nH]c2ccccc12)C(=O)NCCc1ccccc1 | > 10 |
| O=C(O)CCNC(=O)[C@H](Cc1c[nH]c2ccccc12)NC(=O)OCc1ccccc1 | > 10 |
| CC(C)CCNC(=O)[C@H](Cc1c[nH]c2ccccc12)NC(=O)OCCc1c[nH]c2ccccc12 | 2.7 |
| NCCCCCNC(=O)[C@H](Cc1c[nH]c2ccccc12)NC(=O)OCCc1c[nH]c2ccccc12 | 7.8 |
| O=C(N[C@@H](Cc1c[nH]c2ccccc12)C(=O)NCCO)OCc1ccccc1 | > 10 |
| CC(C)OC(=O)N[C@@H](Cc1c[nH]c2ccccc12)C(=O)NCCc1ccccc1 | > 10 |
| O=C(N[C@@H](Cc1c[nH]c2ccccc12)C(=O)NCCc1c[nH]cn1)OCCc1c[nH]c2ccccc12 | 5 |
| CC(C)CNC(=O)[C@H](Cc1c[nH]c2ccccc12)NC(=O)OCC(=O)O | > 10 |
| CC(C)CNC(=O)[C@H](Cc1c[nH]c2ccccc12)NC(=O)OCc1c[nH]cn1 | > 10 |
| COC(=O)N[C@@H](Cc1c[nH]c2ccccc12)C(=O)NCCc1cnc[nH]1 | > 10 |
| CC(C)OC(=O)N[C@@H](Cc1c[nH]c2ccccc12)C(=O)NCCC(=O)O | > 10 |
| CC(C)COC(=O)N[C@@H](Cc1c[nH]c2ccccc12)C(=O)NCCc1ccccc1 | 4.3 |
| CC(C)COC(=O)N[C@@H](Cc1c[nH]c2ccccc12)C(=O)NCCC(=O)O | > 10 |
| NCCCCOC(=O)N[C@@H](Cc1c[nH]c2ccccc12)C(=O)NCCC(=O)O | > 10 |

target: Substance-P receptor (Homo sapiens, UniProt P25103); assay: Concentration required for binding affinity to neurokinin (NK1) receptor in human IM9 cells; assay type: cell-based, IM-9
Sequence (P25103 whole entry): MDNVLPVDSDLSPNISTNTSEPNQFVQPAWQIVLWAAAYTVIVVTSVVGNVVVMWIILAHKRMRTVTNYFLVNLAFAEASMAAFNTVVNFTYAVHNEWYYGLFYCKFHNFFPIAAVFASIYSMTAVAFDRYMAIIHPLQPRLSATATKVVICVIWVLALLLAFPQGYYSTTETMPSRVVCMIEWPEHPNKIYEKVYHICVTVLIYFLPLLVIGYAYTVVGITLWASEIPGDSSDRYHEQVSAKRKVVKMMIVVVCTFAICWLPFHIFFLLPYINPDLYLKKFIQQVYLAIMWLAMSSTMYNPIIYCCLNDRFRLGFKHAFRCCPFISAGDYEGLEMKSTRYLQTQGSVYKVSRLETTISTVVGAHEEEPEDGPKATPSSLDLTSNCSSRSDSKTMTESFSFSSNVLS

| SMILES | IC50 [µM] |
| --- | --- |
| CC(C)COC(=O)N[C@@H](Cc1c[nH]c2ccccc12)C(=O)NCCc1c[nH]c2ccccc12 | 0.43 |

target: T2, Cholecystokinin receptor type A (Rattus norvegicus, UniProt P30551); assay: Concentration required for binding affinity to neuropeptide (CCK-A) receptor in rat pancrea
T2 sequence (P30551 whole entry): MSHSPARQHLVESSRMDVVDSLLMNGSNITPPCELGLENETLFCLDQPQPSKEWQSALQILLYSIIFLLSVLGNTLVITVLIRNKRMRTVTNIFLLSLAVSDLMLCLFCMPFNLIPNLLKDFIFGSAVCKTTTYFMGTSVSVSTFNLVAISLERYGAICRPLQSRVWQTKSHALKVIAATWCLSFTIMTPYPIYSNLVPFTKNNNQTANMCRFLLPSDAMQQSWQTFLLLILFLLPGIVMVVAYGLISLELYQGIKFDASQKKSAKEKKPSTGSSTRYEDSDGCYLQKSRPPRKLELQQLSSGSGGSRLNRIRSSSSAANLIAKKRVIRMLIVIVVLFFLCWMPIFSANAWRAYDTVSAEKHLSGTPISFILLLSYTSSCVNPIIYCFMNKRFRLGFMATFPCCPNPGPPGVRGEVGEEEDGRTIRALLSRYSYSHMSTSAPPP

| SMILES | IC50 [µM] |
| --- | --- |
| O=C(N[C@@H](Cc1c[nH]c2ccccc12)C(=O)NCCc1c[nH]c2ccccc12)OCc1ccccc1 | 0.45 |

target: T3, Substance-K receptor (Mesocricetus auratus, UniProt P51144); assay: Concentration required for binding affinity to neurokinin (NK2) receptor in hamster urinary bladder
T3 sequence (P51144 whole entry): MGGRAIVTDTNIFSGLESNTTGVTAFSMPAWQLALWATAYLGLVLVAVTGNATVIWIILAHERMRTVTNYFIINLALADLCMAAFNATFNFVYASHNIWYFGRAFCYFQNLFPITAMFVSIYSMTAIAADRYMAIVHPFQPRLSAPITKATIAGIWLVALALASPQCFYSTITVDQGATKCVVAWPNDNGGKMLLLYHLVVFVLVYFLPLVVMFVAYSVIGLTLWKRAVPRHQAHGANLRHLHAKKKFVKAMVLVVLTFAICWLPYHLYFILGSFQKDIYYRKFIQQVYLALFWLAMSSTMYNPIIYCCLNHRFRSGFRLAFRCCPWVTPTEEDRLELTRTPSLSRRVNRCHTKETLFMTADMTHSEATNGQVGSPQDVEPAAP

| SMILES | IC50 [µM] |
| --- | --- |
| O=C(N[C@@H](Cc1c[nH]c2ccccc12)C(=O)NCCc1ccccc1)OCc1ccccc1 | 3.27 |

target: T4, Gastrin/cholecystokinin type B receptor (Mus musculus, UniProt P56481); assay: Concentration required for binding affinity to neuropeptide (CCK-B) receptor in mouse cerebral cortex; assay type: tissue-based
T4 sequence (P56481 whole entry): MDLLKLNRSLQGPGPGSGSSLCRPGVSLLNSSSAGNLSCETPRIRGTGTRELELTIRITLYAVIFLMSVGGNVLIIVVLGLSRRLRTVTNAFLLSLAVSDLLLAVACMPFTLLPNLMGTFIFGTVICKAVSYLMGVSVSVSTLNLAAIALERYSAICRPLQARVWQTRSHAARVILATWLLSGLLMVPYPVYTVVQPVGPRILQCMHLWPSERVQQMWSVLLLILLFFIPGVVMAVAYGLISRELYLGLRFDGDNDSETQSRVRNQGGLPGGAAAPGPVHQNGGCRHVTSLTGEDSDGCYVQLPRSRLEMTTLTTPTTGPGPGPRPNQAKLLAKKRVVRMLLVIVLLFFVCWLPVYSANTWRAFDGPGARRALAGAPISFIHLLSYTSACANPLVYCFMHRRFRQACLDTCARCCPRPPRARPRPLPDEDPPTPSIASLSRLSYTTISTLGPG

| SMILES | IC50 [µM] |
| --- | --- |
| CC(C)CCNC(=O)[C@H](Cc1c[nH]c2ccccc12)NC(=O)OCc1ccccc1 | 2.12 |

From ChEMBL document CHEMBL1130494, “Design and synthesis of a targeted set of aromatic amino acid derivatives for identification of new lead compounds” (Bioorg Med Chem Lett, 1997)
